# Reference: US5279939A, “Protein protease inhibitors from streptomyces” (SmithKline Beecham Corporation, priority 1992, dated 1994)
# System: trypsin
# Test: chromogenic trypsin inhibition assay using KABI S2288 substrate
# Assay type: biochemical
# Settings: 25 ng trypsin, 410 nm
# Procedure: Trypsin inhibitory activity was determined in a chromogenic assay using KABI S2288 as substrate (HO ILE PRO ARG p-nitroanilide.) Scisson of the ARG-p-nitroanilide bond releases p-nitroaniline which absorbs at 410 nm; thus, the extent of cleavage is measured by the increase in absorbance at 410 nm. This assay was used in qualitative manner to determine the inhibitory activity of LTI and LEP-10. Briefly, serial two fold dilutions of either conditioned medium (CM) or ammonium sulfate concentrates (AS) of conditioned medium were mixed with 25 ng of trypsin and the substrate was added. After 30 min at room temperature, the assay was stopped by addition of acetic acid. The assay was carried out in microtiter plates, which were then read in an ELISA reader. Similar samples of PSN were included as controls. […] The data shown are the absorbances measured following cleavage of the chromogenic substrate by trypsin.
substance,measurement,setting,value
plasminostreptin [PSN],absorbance following cleavage of the chromogenic substrate by trypsin,"ammonium sulfate concentrate (AS), reciprocal dilution 1, 30 min, No Inh. control 0.763 (LTI) / 0.751 (PSN)",0.018
same,absorbance following cleavage of the chromogenic substrate by trypsin,"ammonium sulfate concentrate (AS), reciprocal dilution 2, 30 min",0.021
same,absorbance following cleavage of the chromogenic substrate by trypsin,"ammonium sulfate concentrate (AS), reciprocal dilution 4, 30 min",0.023
same,absorbance following cleavage of the chromogenic substrate by trypsin,"ammonium sulfate concentrate (AS), reciprocal dilution 8, 30 min",0.024
same,absorbance following cleavage of the chromogenic substrate by trypsin,"ammonium sulfate concentrate (AS), reciprocal dilution 16, 30 min",0.036
same,absorbance following cleavage of the chromogenic substrate by trypsin,"ammonium sulfate concentrate (AS), reciprocal dilution 32, 30 min",0.076
same,absorbance following cleavage of the chromogenic substrate by trypsin,"conditioned medium (CM), reciprocal dilution 1, 30 min room temperature, No Inh. control 0.898 (LTI) / 0.772 (PSN)",0.010
same,absorbance following cleavage of the chromogenic substrate by trypsin,"conditioned medium (CM), reciprocal dilution 2, 30 min",0.046
same,absorbance following cleavage of the chromogenic substrate by trypsin,"conditioned medium (CM), reciprocal dilution 4, 30 min",0.046
same,absorbance following cleavage of the chromogenic substrate by trypsin,"conditioned medium (CM), reciprocal dilution 8, 30 min",0.053
same,absorbance following cleavage of the chromogenic substrate by trypsin,"conditioned medium (CM), reciprocal dilution 16, 30 min",0.058
same,absorbance following cleavage of the chromogenic substrate by trypsin,"conditioned medium (CM), reciprocal dilution 32, 30 min",0.273
